Measured values taken from patent US20080063643A1, “Peptide Derived From Hepatitis C Virus” (priority 2003, published 2008).

How the values were obtained:
[1] = tested on: peptide-specific IgG in the serum; test: ELISA of peptide-specific IgG in sera of HCV patients and healthy donors (Example 1); assay type: binding, human
Outline: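 Sera from 12 HCV patients and 10 healthy donors, diluted 1:100–1:400, tested by ELISA on plates coated with DSS-crosslinked HLA-A2/A24-motif HCV 1b peptides (20 µg/well); HIV peptide as negative control. Incubated 2 h at 37 °C; detection via rabbit anti-human IgG, HRP-polymer anti-rabbit, TMB. Cutoff = healthy-donor mean OD ± 3 SD.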

peptide-reactive IgG = test: ELISA of anti-C-35 and anti-NS5A-2132 antibody in cohort study sera of 1995 and 2002; assay type: binding, human; conditions: serum dilution 100:1
Experimental: Sera were obtained from 33 patients with a disease associated with HCV in the cohort study conducted between 1995 and 2002. The sera obtained from patients with chronic hepatitis (CH, n=68), liver cirrhosis (LC, n=43) and hepatic cell carcinoma (HCC, n=52) were also used in the analysis. These patients were diagnosed at the time of the first serum sampling by biochemical and histological findings, echography and computed tomography. An anti-HCV antibody was assayed using a chemiluminescence enzyme immunoassay (CLEIA) kit (Lumipulse II HCV, Fujirebio Inc., Tokyo, Japan) or the second generation or the third generation enzyme immunoassay test (SRL, Tokyo, Japan). HCV-RNA in the sera was detected using RT-PCR (SRL, Tokyo, Japan). The HCV genotype was determined by directly sequencing HCV in the sera of the patients by RT-PCR (SRL, Tokyo, Japan). The sera were also obtained from subjects who were not infected with HCV, which include 24 subjects with an autoimmune disease (6 patients with systematic lupus erythematosus, one with Behcet's disease and 17 with atopic dermatitis), 17 cases of hepatitis B virus (HBV) infection (positive for HBV surface antigen), 3 patients having human immunodeficiency virus (HIV) and 10 cases with human T cell leukemia virus type I (HTLV-1) infection.
The level of peptide-specific IgG was measured by an enzyme-linked immunosorbent assay (ELISA). […]

YLLPRRGPRL [No. 40]
IgG antibody reactive to the peptide in the serum of single patients ([1]; representative patients, FIGS. 1 and 2): detected | Healthy donors (n = 10) Positive % ([1]; share of 10 healthy donors with serum IgG reactive to the peptide, ELISA, cut-off value 1.83): 0% | HCV patients (n = 12) Positive % ([1]; share of 12 HCV patients with serum IgG reactive to the peptide, ELISA, cut-off value 1.83): 100% | level of the anti-peptide antibody in 1995 compared with 2002 (peptide-reactive IgG; 33 cohort patients): almost equal | level of the anti-peptide antibody by group in 2002 (peptide-reactive IgG; CH, LC, HCC, recovered individuals, ASC): high in any of CH, LC, and HCC patients, and it became very low or undetectable in the recovered individuals
